This experiment has as its system A549/ATCC. As to the kind of experiment: NCI60 one-dose screen, A549. As to conditions: A549 cells; single concentration of 10 μM; NCI60 panel. Type of experiment: cell-based, human. The procedure: Anti-cancer activity screening of all compounds was performed by the NCI Developmental Therapeutics Program (DTP) through their NCI60 screening initiative. Assay details can be found at the website dtp.cancer.gov/discovery_development/nci-60/methodology.htm. Information from this website is reproduced here for convenience.
As of early 2007 all compounds submitted to the NCI 60 Cell screen are tested initially at a single high dose (10^-5 M) in the full NCI 60 cell panel. Only compounds which satisfy pre-determined threshold inhibition criteria in a minimum number of cell lines will progress to the full 5-dose assay. The threshold inhibition criteria for progression to the 5-dose screen was selected to efficiently capture compounds with anti-proliferative activity based on careful analysis of historical DTP screening data. The threshold criteria may be updated as additional data becomes available.
The One-dose data will be reported as a mean graph of the percent growth of treated cells and will be similar in appearance to mean graphs from the 5-dose assay. The number reported for the One-dose assay is growth relative to the no-drug control, and relative to the time zero number of cells. This allows detection of both growth inhibition (values between 0 and 100) and lethality (values less than 0). This is the same as for the 5-dose assay, described below. For example, a value of 100 means no growth inhibition. A value of 40 would mean 60% growth inhibition. A value of 0 means no net growth over the course of the experiment. A value of −40 would mean 40% lethality. A value of −100 means all cells are dead. Information from the One-dose mean graph is available for COMPARE analysis.
The human tumor cell lines of the cancer screening panel are grown in RPMI 1640 medium containing 5% fetal bovine serum and 2 mM L-glutamine. For a typical screening experiment, cells are inoculated into 96 well microtiter plates in 100 μL at plating densities ranging from 5,000 to 40,000 cells/well depending on the doubling time of individual cell lines. After cell inoculation, the microtiter plates are incubated at 37° C., 5% CO2, 95% air and 100% relative humidity for 24 h prior to addition of experimental drugs.
After 24 h, two plates of each cell line are fixed in situ with TCA, to represent a measurement of the cell population for each cell line at the time of drug addition (Tz). Experimental drugs are solubilized in dimethyl sulfoxide at 400-fold the desired final maximum test concentration and stored frozen prior to use. At the time of drug addition, an aliquot of frozen concentrate is thawed and diluted to twice the desired final maximum test concentration with complete medium containing 50 μg/ml gentamicin. Additional four, 10-fold or ½ log serial dilutions are made to provide a total of five drug concentrations plus control. Aliquots of 100 μl of these different drug dilutions are added to the appropriate microtiter wells already containing 100 μl of medium, resulting in the required final drug concentrations.
Following drug addition, the plates are incubated for an additional 48 h at 37° C., 5% CO2, 95% air, and 100% relative humidity. For adherent cells, the assay is terminated by the addition of cold TCA. Cells are fixed in situ by the gentle addition of 50 μl of cold 50% (w/v) TCA (final concentration, 10% TCA) and incubated for 60 minutes at 4° C. The supernatant is discarded, and the plates are washed five times with tap water and air dried. Sulforhodamine B (SRB) solution (100 μl) at 0.4% (w/v) in 1% acetic acid is added to each well, and plates are incubated for 10 minutes at room temperature. After staining, unbound dye is removed by washing five times with 1% acetic acid and the plates are air dried. Bound stain is subsequently solubilized with 10 mM trizma base, and the absorbance is read on an automated plate reader at a wavelength of 515 nm. […]
Regarding `CC(C)C1C2=C(NCCN1C(=O)C1CCCC1)C(C)(C)N(Cc1ccccc1)C2=O` (stereo not shown) [Compound 8c], the “reduction of cell growth of A549 non-small cell lung cancer cells” value is 24%.

Consider `CC(C)C1C2=C(NCCN1C(=O)c1ccncc1)C(C)(C)N(Cc1ccccc1)C2=O` (stereo not shown) [Compound 8e], for which the “reduction of cell growth of A549 non-small cell lung cancer cells” value was below 5%.

For `CC1(C)C2=C(C(=O)N1Cc1ccccc1)C(c1ccco1)N(C(=O)C1CCC1)CCN2` (stereo not shown) [Compound 8m, 7-benzyl-4-(cyclobutanecarbonyl)-5-(furan-2-yl)-8,8-dimethyl-2,3,4,5,7,8-hexahydropyrrolo[3,4-e][1,4]diazepin-6(1H)-one], the “reduction of cell growth of A549 non-small cell lung cancer cells” value worked out at 24%.

As for `CC(C)C1C2=C(NCCN1C(=O)c1cccnc1)C(C)(C)N(Cc1ccccc1)C2=O` (stereo not shown) [Compound 8f], the “reduction of cell growth of A549 non-small cell lung cancer cells” value is 32%.
